This experiment concerns the target human PHD2184-418 (Homo sapiens (Human), UniProt Q9GZT9). Briefly: PHD2 inhibitory test (fluorescence polarization, binding between PHD2 and HIF-1α). The settings on record: for IC50: human PHD2184-418, FITC-labeled HIF-1α556-574, 2 μM 2-oxoglutarate, 37° C. 60 minutes; for inhibition at 100 µM: read-out: inhibition rate at the compound concentration of 100 μM (numerals with *), compound concentration 100 μM. As for the experimental part: Test Example 1 PHD2 Inhibitory Test
(1) Expression and Preparation of Human PHD2184-418
Human PHD2184-418 containing amino acid residues 184 to 418 of the protein represented by CAC42509 (GenBank accession ID) was expressed and prepared by the following method.
An expression construct of human PHD2184-418 containing N-terminal histidine tag was introduced into pET-30a (+) vector, and the sequence was confirmed. This vector was introduced into BL21 (DE3) strain and cultured at 37° C. in LB medium containing antibiotics. After culturing, a cell lysis solution was added to the cells, and then the cells were disrupted by sonication. The disrupted suspension was centrifuged and the supernatant was purified by Ni column to give human PHD2184-418.
Human HIF-1α556-574 (FITC-labeled HIF-1α556-574), containing N-terminal FITC-Ahx, containing amino acid residues 556 to 574 (partial peptide) of HIF-1α was used as a substrate. Using FITC-labeled HIF-1α556-574, the competitive inhibition between 2-oxoglutarate and test compounds (PHD inhibitor) was evaluated based on the change in fluorescence polarization by the following method.
An enzyme (human PHD2184-418) and the substrate were diluted with an assay buffer (pH 7.4) containing 10 mM HEPES, 150 mM NaCl, 10 μM MnCl2-4H2O, 2 μM 2-oxoglutarate and 0.05% Tween-20. Test compounds were diluted with DMSO. Test compounds and human PHD2184-418 was added to the 384-well plate (Corning, black, opaque bottom) in advance. The reaction was started by the addition of FITC-labeled HIF-1α556-574. After incubating at 37° C. for 60 minutes, fluorescence polarization (excitation wavelength: 470 nm, fluorescence wavelength: 530 nm) was measured by PHERAstar FSX (BMG Labtech). Fluorescence polarization of each well was measured, and human PHD2 binding inhibitory activity of test compounds was calculated based on the value of test compound-free group.

Each structure is given as a SMILES string. Where a name gives a salt, the structure may show the parent alone.

human PHD2184-418, sequence (Q9GZT9 184-418): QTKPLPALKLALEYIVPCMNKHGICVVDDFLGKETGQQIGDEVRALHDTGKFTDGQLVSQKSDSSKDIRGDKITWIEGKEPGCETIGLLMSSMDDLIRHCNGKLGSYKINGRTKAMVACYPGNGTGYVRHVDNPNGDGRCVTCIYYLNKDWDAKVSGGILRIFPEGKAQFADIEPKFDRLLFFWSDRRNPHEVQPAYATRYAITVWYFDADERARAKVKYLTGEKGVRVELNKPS

Molecule `Cc1cccnc1CN1CC[C@H](n2c(=O)n(-c3ccc(-c4ccccc4)cc3)c3cccnc32)C1` [Example 1, (S)-1-([1,1′-Biphenyl]-4-yl)-3-(1-((3-methylpyridin-2-yl)methyl)pyrrolidin-3-yl)-1,3-dihydro-2H-imidazo[4,5-b]pyridin-2-one] had an IC50 of 8.43 µM. This counts as single-digit micromolar.

Take `Cn1ccnc1CN1CC[C@H](n2c(=O)n(-c3ccc(-c4ccccc4)cc3)c3cccnc32)C1` [Example 2, (S)-1-([1,1′-biphenyl]-4-yl)-3-(1-((1-methyl-1H-imidazol-2-yl)methyl)pyrrolidin-3-yl)-1,3-dihydro-2H-imidazo[4,5-b]pyridin-2-one]: the IC50 was 0.79 µM.

Regarding `Cn1ccnc1CN1CC[C@@H](n2c(=O)n(-c3ccc(-c4ccccc4)cc3)c3cccnc32)C1` [Example 3, (R)-1-([1,1′-Biphenyl]-4-yl)-3-(1-((1-methyl-1H-imidazol-2-yl)methyl)pyrrolidin-3-yl)-1,3-dihydro-2H-imidazo[4,5-b]pyridin-2-one], the IC50 was determined as 3.9 µM. This IC50 lies about 4.9-fold higher than the previous one.

Turning to `O=c1n(-c2ccc(-c3ccccc3)cc2)c2cccnc2n1[C@H]1CCN(Cc2ccccn2)C1` [Example 4, (S)-1-([1,1′-Biphenyl]-4-yl)-3-(1-(pyridin-2-ylmethyl)pyrrolidin-3-yl)-1,3-dihydro-2H-imidazo[4,5-b]pyridin-2-one], the IC50 was 3.45 µM.

Regarding `O=c1n(-c2ccc(-c3ccccc3)cc2)c2cccnc2n1[C@H]1CCN(Cc2c[nH]cn2)C1` [Example 5, (S)-3-(1-((1H-Imidazol-4-yl)methyl)pyrrolidin-3-yl)-1-([1,1′-biphenyl]-4-yl)-1,3-dihydro-2H-imidazo[4,5-b]pyridin-2-one], the IC50 amounted to 2.98 µM.

Take `Cn1cnc(CN2CC[C@H](n3c(=O)n(-c4ccc(-c5ccccc5)cc4)c4cccnc43)C2)c1` [Example 6, (S)-1-([1,1′-Biphenyl]-4-yl)-3-(1-((1-methyl-1H-imidazol-4-yl)methyl)pyrrolidin-3-yl)-1,3-dihydro-2H-imidazo[4,5-b]pyridin-2-one hydrochloride]: the inhibition at 100 µM was found to be 34%.

The molecule `O=c1n(-c2ccc(-c3ccccc3)cc2)c2cccnc2n1[C@H]1CCN(Cc2ncc[nH]2)C1` [Example 7, (S)-3-(1-((1H-Imidazol-2-yl)methyl)pyrrolidin-3-yl)-1-([1,1′-biphenyl]-4-yl)-1,3-dihydro-2H-imidazo[4,5-b]pyridin-2-one] had an IC50 of 15.6 µM.

Regarding `O=c1n(-c2ccc(-c3ccccc3)cc2)c2cccnc2n1[C@H]1CCN(Cc2ncccc2O)C1` [Example 8, (S)-1-([1,1′-Biphenyl]-4-yl)-3-(1-((3-hydroxypyridin-2-yl)methyl)pyrrolidin-3-yl)-1,3-dihydro-2H-imidazo[4,5-b]pyridin-2-one], the inhibition at 100 µM was 29%.

`O=c1n(-c2ccc(-c3ccccc3)cc2)c2cccnc2n1[C@H]1CCN(Cc2ccc(O)cn2)C1` [Example 9, (S)-1-([1,1′-Biphenyl]-4-yl)-3-(1-((5-hydroxypyridin-2-yl)methyl)pyrrolidin-3-yl)-1,3-dihydro-2H-imidazo[4,5-b]pyridin-2-one] displayed an IC50 of 8.03 µM.

Molecule `O=c1n(-c2ccc(-c3ccccc3)cc2)c2cccnc2n1[C@H]1CCN(Cc2cc(O)ccn2)C1` [Example 10, (S)-1-([1,1′-Biphenyl]-4-yl)-3-(1-((4-hydroxypyridin-2-yl)methyl)pyrrolidin-3-yl)-1,3-dihydro-2H-imidazo[4,5-b]pyridin-2-one] came in with an IC50 of 5.49 µM.

The molecule `Cn1ccnc1CN1CC[C@H](n2c(=O)n(-c3ccccc3)c3cccnc32)C1` [Example 11, (S)-3-(1-((1-Methyl-1H-imidazol-2-yl)methyl)pyrrolidin-3-yl)-1-phenyl-1,3-dihydro-2H-imidazo[4,5-b]pyridin-2-one hydrochloride] came in with an IC50 of 85.4 µM.

With `Cn1ccnc1CN1CCC(n2c(=O)n(-c3ccc(-c4ccccc4)cc3)c3cccnc32)CC1` [Example 12, 1-([1,1′-Biphenyl]-4-yl)-3-(1-((1-methyl-1H-imidazol-2-yl)methyl)piperidin-4-yl)-1,3-dihydro-2H-imidazo[4,5-b]pyridin-2-one], the IC50 worked out at 4.95 µM.

`Cn1ccnc1CN1CC(n2c(=O)n(-c3ccc(-c4ccccc4)cc3)c3cccnc32)C1` [Example 13, 1-([1,1′-Biphenyl]-4-yl)-3-(1-((1-methyl-1H-imidazol-2-yl)methyl)azetidin-3-yl)-1,3-dihydro-2H-imidazo[4,5-b]pyridin-2-one] came in with an IC50 of 0.12 µM.

Molecule `Cn1ccnc1CN1CC[C@H](n2c(=O)n(-c3ccc(-c4ccc(O)cc4)cc3)c3cccnc32)C1` [Example 14, (S)-1-(4′-Hydroxy-[1,1′-biphenyl]-4-yl)-3-(1-((1-methyl-1H-imidazol-2-yl)methyl)pyrrolidin-3-yl)-1,3-dihydro-2H-imidazo[4,5-b]pyridin-2-one] came in with an IC50 of 0.36 µM.

In turn, `COC(=O)c1ccc(-n2c(=O)n([C@H]3CCN(Cc4ncccc4C)C3)c3ncccc32)cc1` [Example 15, Methyl (S)-4-(3-(1-((3-methylpyridin-2-yl)methyl)pyrrolidin-3-yl)-2-oxo-2,3-dihydro-1H-imidazo[4,5-b]pyridin-1-yl)benzoate] showed an IC50 of 64.5 µM.

The molecule `O=C(O)c1ccnc(CN2CC[C@H](n3c(=O)n(-c4ccc(-c5ccccc5)cc4)c4cccnc43)C2)c1` [Example 16, (S)-2-((3-(1-([1,1′-Biphenyl]-4-yl)-2-oxo-1,2-dihydro-3H-imidazo[4,5-b]pyridin-3-yl)pyrrolidin-1-yl)methyl)isonicotinic acid] yielded an IC50 of 0.14 µM.

For `O=C(O)c1ccc(CN2CC[C@H](n3c(=O)n(-c4ccc(-c5ccccc5)cc4)c4cccnc43)C2)nc1` [Example 17, (S)-6-((3-(1-([1,1′-Biphenyl]-4-yl)-2-oxo-1,2-dihydro-3H-imidazo[4,5-b]pyridin-3-yl)pyrrolidin-1-yl)methyl)nicotinic acid], the IC50 worked out at 0.52 µM.

Regarding `COc1ccc(-n2c(=O)n([C@H]3CCN(Cc4cc(C(=O)O)ccn4)C3)c3ncccc32)cc1` [Example 18, (S)-2-((3-(1-(4-Methoxyphenyl)-2-oxo-1,2-dihydro-3H-imidazo[4,5-b]pyridin-3-yl)pyrrolidin-1-yl)methyl)isonicotinic acid], the IC50 amounted to 1.95 µM.

`O=C(O)c1ccnc(CN2CC[C@H](n3c(=O)n(-c4ccccc4)c4cccnc43)C2)c1` [Example 19, (S)-2-((3-(2-Oxo-1-phenyl-1,2-dihydro-3H-imidazo[4,5-b]pyridin-3-yl)pyrrolidin-1-yl)methyl)isonicotinic acid] showed a half-inhibitory concentration (IC50) of 6.34 µM.

With `Cn1ccnc1CN1CC[C@H](n2c(=O)n(-c3ccc(-c4ccccc4)cc3)c3ccc(C(=O)O)nc32)C1` [Example 20, (S)-1-([1,1′-Biphenyl]-4-yl)-3-(1-((1-methyl-1H-imidazol-2-yl)methyl)pyrrolidin-3-yl)-2-oxo-2,3-dihydro-1H-imidazo[4,5-b]pyridine-5-carboxylic acid], the IC50 is 6.71 µM.

`Cc1cccnc1CN1CC[C@H](n2c(=O)n(-c3ccc(C(=O)O)cc3)c3cccnc32)C1` [Example 21, (S)-4-(3-(1-((3-Methylpyridin-2-yl)methyl)pyrrolidin-3-yl)-2-oxo-2,3-dihydro-1H-imidazo[4,5-b]pyridin-1-yl)benzoic acid hydrochloride]: the inhibition at 100 µM was found to be 39%.

Consider `Cn1c(C(=O)O)cnc1CN1CC[C@H](n2c(=O)n(-c3ccc4ccccc4c3)c3cccnc32)C1` [Example 22, (S)-1-Methyl-2-((3-(1-(naphthalen-2-yl)-2-oxo-1,2-dihydro-3H-imidazo[4,5-b]pyridin-3-yl)pyrrolidin-1-yl)methyl)-1H-imidazole-5-carboxylic acid], for which the IC50 stood at 0.3 µM.

As for `Cn1c(C(=O)O)cnc1CN1CCC(C)(n2c(=O)n(-c3ccc(-c4ccccc4)cc3)c3cccnc32)CC1` [Example 23, 2-((4-(1-([1,1′-Biphenyl]-4-yl)-2-oxo-1,2-dihydro-3H-imidazo[4,5-b]pyridin-3-yl)-4-methylpiperidin-1-yl)methyl)-1-methyl-1H-imidazole-5-carboxylic acid], the IC50 was found to be 5.5 µM.

With `COc1cnc2c(c1)n(-c1ccc(-c3ccc(C(=O)O)cc3)cc1)c(=O)n2[C@H]1CCN(Cc2ncc(C(=O)O)n2C)C1` [Example 24, (S)-2-((3-(1-(4′-Carboxy-[1,1′-biphenyl]-4-yl)-6-methoxy-2-oxo-1,2-dihydro-3H-imidazo[4,5-b]pyridin-3-yl)pyrrolidin-1-yl)methyl)-1-methyl-1H-imidazole-5-carboxylic acid], the IC50 was found to be 0.11 µM.

`Cn1c(C(=O)O)cnc1CN1C[C@@H](F)[C@H](n2c(=O)n(-c3ccc(-c4ccc(C(=O)O)cc4)cc3)c3cccnc32)C1` [Example 25, 2-(((3R,4R)-3-(1-(4′-Carboxy-[1,1′-biphenyl]-4-yl)-2-oxo-1,2-dihydro-3H-imidazo[4,5-b]pyridin-3-yl)-4-fluoropyrrolidin-1-yl)methyl)-1-methyl-1H-imidazole-5-carboxylic acid] yielded an IC50 of 0.11 µM.

For orientation: IC50 means the concentration at which inhibition is half-maximal. A higher IC50 goes with lower potency.

(Values after US12077531B2, “Imidazopyridinone compound” (KISSEI PHARMACEUTICAL CO., LTD., priority 2018, dated 2024).)
